Where two headings read alike, the source gives them in different places.
Experiments:
[1] = molecular target: T1, human M5 receptor (Homo sapiens, UniProt P08912); assay: HTRF IP-One curve shift assay, M5; type: cell-based
T1 construct: expressed in transfected cells
T1 sequence (P08912 1-532): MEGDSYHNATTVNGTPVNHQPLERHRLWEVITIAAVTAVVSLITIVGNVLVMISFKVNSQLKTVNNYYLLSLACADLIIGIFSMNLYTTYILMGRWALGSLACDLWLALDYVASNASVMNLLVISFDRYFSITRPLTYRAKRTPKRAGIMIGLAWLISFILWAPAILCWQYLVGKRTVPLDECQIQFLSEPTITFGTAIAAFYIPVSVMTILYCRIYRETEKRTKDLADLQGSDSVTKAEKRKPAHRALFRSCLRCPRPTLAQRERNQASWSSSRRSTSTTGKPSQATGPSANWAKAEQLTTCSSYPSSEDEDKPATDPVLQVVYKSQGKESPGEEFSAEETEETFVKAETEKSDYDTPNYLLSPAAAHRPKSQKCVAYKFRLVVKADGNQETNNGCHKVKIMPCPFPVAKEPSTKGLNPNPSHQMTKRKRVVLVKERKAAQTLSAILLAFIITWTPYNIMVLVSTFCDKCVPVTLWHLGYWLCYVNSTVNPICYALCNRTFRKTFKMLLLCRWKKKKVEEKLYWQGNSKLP
Description: (§1) HTRF IP-One assays were performed using frozen cell aliquots prepared from CHO-K1 cell lines stably expressing human M1, M3, or M5 receptors. Cells were frozen following typical cell freezing protocols. […] Dissociated cells were quenched in full media and collected by centrifugation at 290×g for 5 min. […] 1 mL aliquots of cells were dispensed into cryovial tubes and frozen in a controlled rate cryo-freezer container at −80° C. Cells were stored at −80° C. (or in liquid nitrogen if stored for at least six months) until the day of the assay.
(§2) On the day before the assay, frozen cells were rapidly thawed in a 37° C. water bath, brought up in 20 mL of full media, and collected via centrifugation at 290×g for 5 min. […] Next, […] of cells (10,000 cells/well) were dispensed into 384-well coming plates in triplicate. Cells were incubated overnight in a 37° C., 5% CO2 cell incubator.
(§3) Then, 2 μL of test compounds were added to the cells and incubated for 10 min at 37° C. in a 5% CO2 cell incubator. Next, 2 μL of diluted agonists serially diluted in assay buffer at 7× final assay concentration was added to assay plates. Finally, assay plates were incubated for two hours at 37° C. in a 5% CO2 cell incubator.
(§4) Six μL of IP-1 detection reagents (IP-One Gq HTRF kit, Cisbio Cat #62IPAPEJ) were dispensed to the cells. First, the plates were incubated for two hours at room temperature (IP-One detection reagents were made according to Cisbio protocol). Then, plates were read on an Envision plate reader following the Cisbio guidelines.
(§5) Raw data for all assays was transmitted directly from plate readers into the Beacon database for processing. All assay plates contained positive and negative control wells for data normalization and scaling. […] All control wells contained DMSO at a final assay concentration that matched the test compound wells.
(§6) Counts from the standard curve wells were used to generate a sigmoidal standard curve, which was used to transform the raw counts from each well on the plate (scaling control wells and compound wells) into a pmol/well IP1 value.

[2] = molecular target: T2, human M3 receptor (Homo sapiens, UniProt P20309); assay: HTRF IP-One curve shift assay, M3; type: cell-based
T2 construct: expressed in transfected cells
T2 sequence (P20309 whole entry): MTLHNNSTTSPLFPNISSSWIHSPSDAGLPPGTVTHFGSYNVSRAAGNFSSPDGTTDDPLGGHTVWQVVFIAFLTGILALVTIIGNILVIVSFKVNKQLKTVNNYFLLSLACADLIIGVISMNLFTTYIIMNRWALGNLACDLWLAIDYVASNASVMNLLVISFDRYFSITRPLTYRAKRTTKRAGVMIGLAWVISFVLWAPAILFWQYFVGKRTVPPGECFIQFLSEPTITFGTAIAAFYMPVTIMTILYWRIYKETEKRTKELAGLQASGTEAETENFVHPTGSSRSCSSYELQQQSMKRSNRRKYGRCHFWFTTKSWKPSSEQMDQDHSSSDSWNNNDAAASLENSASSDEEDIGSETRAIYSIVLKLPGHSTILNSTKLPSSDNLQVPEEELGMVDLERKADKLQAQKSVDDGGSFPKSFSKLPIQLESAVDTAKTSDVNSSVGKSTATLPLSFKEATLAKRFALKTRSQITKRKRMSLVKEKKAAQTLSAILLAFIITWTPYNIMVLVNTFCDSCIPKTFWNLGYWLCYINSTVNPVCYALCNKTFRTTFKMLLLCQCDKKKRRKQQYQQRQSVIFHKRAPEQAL
Description: as §1, §2, §3, §4, §5, §6

CCCCCCOc1nsnc1C1=CCCN(C)C1 [xanomeline, reference compound]
Emax at […] [1]: 80%
Emax ([1]; M5, Emraclidine concentration 0 nM): 81.14%
Emax ([1]; M5, Emraclidine concentration 41.2 nM, read-out: Emax): 78.5%
Emax ([1]; M5, Emraclidine concentration 123 nM, read-out: Emax): 84.2%
Emax at […] ([1]; M5, Emraclidine concentration 370 nM, read-out: Emax): 89%
Emax ([1]; M5, Emraclidine concentration 1110 nM, read-out: Emax): 81.9%
Emax ([1]; M5, Emraclidine concentration 3330 nM, read-out: Emax): 79.5%
Emax at […] ([1]; M5, Emraclidine concentration […], read-out: Emax): 79.4%
τ (agonist pharmacology) ([1]; M5, M4 PAM Emraclidine): 0.1
τ (agonist pharmacology) ([1]; M5, M4 PAM MK-4710): 0.0
Emax ([1]; M5, MK-4710 concentration 0 nM): 77.91%
Emax ([1]; M5, MK-4710 concentration 41.2 nM, read-out: Emax): 87%
Emax ([1]; M5, MK-4710 concentration 123 nM, read-out: Emax): 86.9%
Emax at […] ([1]; M5, MK-4710 concentration 370 nM, read-out: Emax): 92.9%
Emax ([1]; M5, MK-4710 concentration 1110 nM, read-out: Emax): 78.6%
Emax ([1]; M5, MK-4710 concentration 3330 nM, read-out: Emax): 83%
EC50 ([2]; Emraclidine concentration 0 nM): 155 nM
Emax ([2]; Emraclidine concentration 0 nM): 77.3%
Emax ([2]; Emraclidine concentration 41.2 nM, read-out: Emax): 81.9%
Emax ([2]; Emraclidine concentration 123 nM, read-out: Emax): 85.7%
Emax at […] ([2]; Emraclidine concentration 370 nM): 91.6%
Emax ([2]; Emraclidine concentration 1110 nM, read-out: Emax): 89.1%
Emax ([2]; Emraclidine concentration 3330 nM, read-out: Emax): 80.3%
Emax at […] ([2]; Emraclidine concentration […]): 74.5%
τ (agonist pharmacology) ([2]; M4 PAM Emraclidine): 0.1
τ (agonist pharmacology) ([2]; M4 PAM MK-4710): 0.1
EC50 ([2]; MK-4710 concentration 0 nM): 147 nM
Emax ([2]; MK-4710 concentration 0 nM): 84.2%
Emax ([2]; MK-4710 concentration 41.2 nM, read-out: Emax): 94.3%
Emax ([2]; MK-4710 concentration 123 nM, read-out: Emax): 90.3%
Emax at […] ([2]; MK-4710 concentration 370 nM): 88.9%
Emax ([2]; MK-4710 concentration 1110 nM, read-out: Emax): 81%
Emax ([2]; MK-4710 concentration 3330 nM, read-out: Emax): 81.8%
Emax at […] ([2]; MK-4710 concentration […]): 81.5%
